{
  "source": "patent US20220243177A1",
  "about": "“METHODS OF CULTURING QUIESCENT HEMATOPOIETIC STEM CELLS AND TREATMENT METHODS” (priority 2019, published 2022)",
  "key": {"[1]": {"test_system": "MMP-low and MMP-high HSCs", "experiment": "Glucose uptake assay (2NBDG)", "assay_type": "cell-based, mouse", "details": "ConA (25 nM, 50 nM), 18 hours", "method": "Glucose Uptake Assay: For measurement of glucose uptake, freshly FACS-purified MMP-low and MMP-high HSCs (at least 2,000 cells pooled in average from 8 mice) were cultured immediately in […] of glucose, glutamine, pyruvate free medium containing 100 or 200 μM 2-(n-(7-nitrobenz-2-oxa-1,3-diazol-4-yl amino)-2-deoxyglucose (2-NBD-Glucose, 2NBDG) for 2 hours. Cells were then washed multiple times in PBS, re-suspended in PBS containing 1 μg/ml DAPI, and analyzed by flow cytometry for 2-NBD glucose fluorescence in the FITC channel. In some experiments cells were cultured in StemSpan medium (StemCell Technology) supplemented with SCF (100 ng/ml) and TPO (20 ng/ml), treated with or without STF-31 ([…]), ConA (25, 50 nM), dimethyl alpha ketoglutarate (MOG, 1 mM), methyl pyruvate (MP, 1 mM) or DMSO, incubated at 37° C. in a humidified atmosphere with 5% CO2 for 6 or 18 hours before removing culture medium from each well, washing extensively and adding […] of glucose, glutamine, pyruvate free medium containing […] of 2 NBDG for 2 hours before washing cells multiple times in PBS and analyzing by flow cytometry. Quantification of 2NBDG uptake was measured by the geometric mean fluorescence intensity (“MFI”) as well as % of 2NBDG^+ cells."}, "[2]": {"test_system": "aged MMP-low and -high LT-HSCs transplanted into lethally irradiated mice", "experiment": "Long-term in vivo competitive repopulation assay of aged HSCs after ex vivo ConA", "parameters": "species or system mouse", "method": "FIGS. 21A-21C show repression of lysosomal activity ex vivo greatly improves in vivo competitive repopulation of old HSCs. FIG. 21A is a schematic of long-term in vivo competitive repopulation assay. FACS-sorted (5000) aged MMP-low and -high (CD45.2) long-term (LT) HSCs were cultured in vitro in DMSO control or Con A (40 nM) for 4 days after which 100 cells from each group were injected into lethally irradiated recipient (CD45.1) mice along with 2×10^5 CD45.1 total bone marrow competitor cells (n=7). FIG. 21B is a graph showing contribution of donor-derived (CD45.2) cells to the peripheral blood (PB) of primary recipient mice (CD45.1) in a long-term competitive repopulation assay. FIG. 21C is a graph showing lineage output as a percentage of total CD45.2 donor-derived cells in primary recipients. Data expressed as Mean±SEM (**P<0.01, ***P<0.001). Note only ConA-treated old HSCs and not control-treated HSCs generate over 1% chimerism in transplanted animals after 21 weeks."}, "[3]": {"test_system": "MMP-low and MMP-high HSCs", "experiment": "Lysosome acidity (LysoTracker green, LysoSensor blue)", "assay_type": "cell-based, mouse", "details": "ConA 40 nM, 5 hours", "method": "To test lysosome acidity in MMP-low and MMP-high HSCs, FACS-sorted MMP-low and MMP-high HSCs were incubated in Stem-Span media with SCF (10 ng/mL) and TPO (20 ng/mL) or amino acid free medium (starvation) containing ConA (40 nM) or DMSO control for 5 hr; and then cells were incubated with […] Lysotracker green (LTR) or 1mM Lysosensor Blue diluted in above medium for 30 min (37° C., 5% CO2). Cells were rapidly washed with warm PBS (37° C.) three times, mounted and images were captured using a Zeiss LSM880 confocal microscope using a 40× objective (N.A. 1.4)."}, "[4]": {"test_system": "MMP-low and MMP-high HSCs (LSKCD150+CD48-)", "experiment": "Single cell division assay", "assay_type": "cell-based, mouse", "details": "for Number of wells with each number of cell division: 0 / Number of wells with each number of cell division: 1 / Number of wells with each number of cell division: Dead / Number of wells with each number of cell division: ≥2: 60 h", "method": "Single Cell Division Assay: Single cell cultures were carried out as previously described (Bernitz et al., “Hematopoietic Stem Cells Count and Remember Self-Renewal Divisions,” Cell 167(5): 1296-1309 (2016), which is hereby incorporated by reference in its entirety). Single MMP-low and MMP-high HSCs (LSKCD150^+CD48^−) isolated from GFP-transgenic mice were FACS sorted into individual wells of round-bottomed 96-well plates. Single cells were visually confirmed under light microscope and cultured in serum free Stemspan medium. Wells were supplemented with SCF (100 ng/ml) and TPO (20 ng/ml) (both from R&D system), were incubated at 37° C. in a humidified atmosphere with 5% CO2, and the number of cells per well was monitored daily. The final number of cell divisions per well was assessed at the indicated time points in each experiment. Treatments with concanamycin A (“ConA”) (40-100 nM) or DMSO control were added at the start of culture and left in the wells for the duration of the experiment unless otherwise stated. More than 200 cells per condition were analyzed. Cell Cycle Analysis—Pyronin Y staining. Pyronin Y staining was performed as described in Rimmele et al., “Mitochondrial Metabolism in Hematopoietic Stem Cells Requires Functional FOXO3,” EMBO Rep. 16: 1164-1176 (2015) and Yalcin et al., “Foxo3 Is Essential for the Regulation of Ataxia Telangiectasia Mutated and Oxidative Stress-mediated Homeostasis of Hematopoietic Stem Cells,” J. Biol. Chem. 283: 25692-25705 (2008), which are hereby incorporated by reference in their entirety. FACS-purified MMP-low and MMP-high LT-HSCs were stained with Hoechst 33342 ([…]) at 37° C. for 45 minutes, followed by staining with pyronin Y (1 mg/ml) for an additional 15 minutes at 37° C. Cells were then washed in cold PBS, and resuspended in IMDM+2% FBS. Samples were immediately analyzed by flow cytometry."}, "[5]": {"details": "aging HSCs, ConA 40 nM, 60-hour"}},
  "data": [
    {"smiles": "C/C=C/[C@H]1O[C@@](O)([C@@H](C)[C@H](O)[C@H](C)[C@H]2OC(=O)/C(OC)=C/C(C)=C/[C@@H](C)[C@@H](O)[C@@H](CC)[C@@H](O)[C@H](C)C/C(C)=C/C=C/[C@@H]2OC)C[C@@H](O[C@H]2C[C@@H](O)[C@H](OC(N)=O)[C@@H](C)O2)[C@@H]1C", "note": "[ConA, concanamycin A]", "values": [
      {"measurement": "decrease of glucose uptake in MMP-high HSCs", "setting": "[1]", "result": 19, "unit": "fold"},
      {"measurement": "effect on reducing the viability under the glucose uptake condition", "setting": "[1]", "result": "mostly restricted to MMP-high and subtle in MMP-low HSCs"},
      {"measurement": "lineage output of aged MMP-high HSCs", "setting": "[2]; 4-day cultured, Con A 40 nM", "result": "balanced their lineage output"},
      {"measurement": "competitive repopulation ability of aged MMP-high HSCs", "setting": "[2]; 4-day cultured, Con A 40 nM, 100 cells", "result": "remarkably improved"},
      {"measurement": "self-renewal of old HSCs and their balance blood production", "setting": "[2]; ex vivo ConA treatment (FIG. 19 and FIG. 20)", "result": "improves significantly"},
      {"measurement": "self-renewal of aged HSCs in secondary transplants", "setting": "[2]; mice receiving control-treated HSCs died", "result": "improved self-renewal in secondary transplants"},
      {"measurement": "survival of recipients in secondary transplantation", "setting": "[2]; old HSCs, 4-day ex vivo ConA, not control-treated", "result": "survive in secondary transplantation"},
      {"measurement": "chimerism in transplanted animals", "setting": "[2]; old HSCs, after 21 weeks, control-treated HSCs do not", "result": "over 1%"},
      {"measurement": "lysosomal acidity", "setting": "[3]", "result": "reduced"},
      {"measurement": "frequency of non-dividing MMP-high GFP+ HSCs", "setting": "[4]; ConA 40 nM, up to 60 hours", "result": "significantly increased"},
      {"measurement": "non-dividing MMP-low HSCs in culture", "setting": "[4]; ConA 40 nM, up to 60 hours", "result": "only a slight effect"},
      {"measurement": "Number of wells with each number of cell division: 0", "setting": "[4]; MMP High + Con A (40 nM)", "result": "23.8 ± 1.33"},
      {"measurement": "Number of wells with each number of cell division: 1", "setting": "[4]; MMP High + Con A (40 nM)", "result": "8.8 ± 0.84"},
      {"measurement": "Number of wells with each number of cell division: Dead", "setting": "[4]; MMP High + Con A (40 nM)", "result": "14.4 ± 0.92"},
      {"measurement": "Number of wells with each number of cell division: ≥2", "setting": "[4]; MMP High + Con A (40 nM)", "result": "7.4 ± 2.62"},
      {"measurement": "Number of wells with each number of cell division: 0", "setting": "[4]; MMP Low + Con A (40 nM)", "result": "35.8 ± 8.89"},
      {"measurement": "Number of wells with each number of cell division: 1", "setting": "[4]; MMP Low + Con A (40 nM)", "result": "7.4 ± 1.24"},
      {"measurement": "Number of wells with each number of cell division: Dead", "setting": "[4]; MMP Low + Con A (40 nM)", "result": "7 ± 1.51"},
      {"measurement": "Number of wells with each number of cell division: ≥2", "setting": "[4]; MMP Low + Con A (40 nM)", "result": "4.6 ± 1.53"},
      {"measurement": "cell death of aging HSC in culture", "setting": "[4]; [5]", "result": "without any increase in cell death"},
      {"measurement": "division of aging HSC in culture", "setting": "[4]; [5]", "result": "divided less than non-treated HSC"}
    ]}
  ]
}
